Patent US11613544B2, “Substituted imidazo[1,5-a]pyrazines for modulation of IRE1” (THE REGENTS OF THE UNIVERSITY OF CALIFORNIA, priority 2012, dated 2023)
“Also recorded” adds a separate entry of the source.

What was measured:
IRE1α* [1] = biological target: T1, IRE1α* (Homo sapiens, UniProt O75460); details: in vitro
IRE1α* (WT) = biological target: T2, IRE1α* (WT) (Homo sapiens, UniProt O75460); test: In vitro cleavage of pre-miR-17 by IRE1α*; assay type: biochemical
T2 construct: 6-His-tag (N); made in house; host or cells: SF9 insect cells (Bac-to-Bac baculovirus)
From the text: FIG. 31. […] Sequence legend (FIG. 31B): SEQ ID NOs:11-15 (in order top to bottom); (FIG. 31C): SEQ ID NO:16.
Described herein is the characterization of four select miRs that decay in vivo upon IRE1α hyperactivation. These are miR-17, miR-34a, miR-96, and miR-125b. WT-IRE1α directly cleaved pre-miR-17 in vitro at sites distinct from those cleaved by DICER, as mapped by primer extension. The scission sites of pre-miR-17 are identical to those of XBP1 mRNA—(G/C)—and diverge at the flanking regions. Thus, by reducing levels of pre-miRs, IRE1α antagonizes DICER action to reduce cellular levels of the corresponding mature miRs. Intriguingly, IRE1α* (I642G), which can be activated by 1NM-PP1 to cleave XBP1 mRNA in vitro, can also cleave pre-miR-17 under 1NM-PP1. An RNAse mutant, IRE1α* (N906A), is compromised for cleavage of pre-miR-17 (FIG. 31, A-C). […] As IRE1α homo-oligomerizes in the ER membrane in proportion to the concentration of unfolded proteins in the ER lumen, it progressively trans-autophosphorylates. Furthermore, salt bridges between phospho-amino acid groups and other residues reinforce higher-order homo-oligomerization of kinase/RNAse domains, as was shown using yeast IRE1. Thus, as IRE1α protein clusters into higher-order oligomers, it acquires increasing activity towards its RNA substrates. […]

retinal photoreceptors = test: Intravitreal injection in rat models of retinal degeneration (tunicamycin; P23H rhodopsin); assay type: in vivo
Description: Based on known rat vitreous volumes, 2 μl was injected intravitreally into each eye. Tm ([…] final concentration) plus/minus KIRA6 (10 μM final concentration) was injected into SD rats at P21 with an equivalent amount of DMSO as a vehicle control. Retinas were collected at 48 and 72 hrs after injections in Trizol (Invitrogen) for qPCR analysis. Eyes were examined by optical coherence tomography (OCT) 7 days post injection and subsequently collected for morphological analysis. […]
Mice were anaesthetized with 1.5-3% isoflurane, eyes were dilated with 2.5% phenylephrine hydrochloride and 1% tropicamide, and corneas were kept moist with regular application of 2.5% methylcellulose. Eyes were examined using a Micron III retinal imaging system (Phoenix Research Labs). Spectral domain OCT images were acquired with a Micron Image Guided OCT System (Phoenix Research Labs) by averaging 10 to 50 scans.
Outer nuclear layers (ONL) were quantified as previously described (Lewin, A. S. et al., Nature medicine 4, 967-971 (1998)). Briefly, rats were euthanized by CO2 inhalation and their eyes were immediately enucleated and immersed in 2% paraformaldehyde and 2.5% glutaraldehyde in phosphate buffered saline. […] ONL thickness was measured at 54 locations around the retina using Bioquant image analysis (Bioquant; R&M Biometrics).

[2] = tested on: mouse embryonic fibroblasts (MEFs); test: Cytoprotection in mouse embryonic fibroblasts; assay type: cell-based
INS-1 cells = test: Terminal UPR endpoints and apoptosis in cells under ER stress; assay type: cell-based, rat
From the text: Using rat insulinoma (INS-1) cells that have a well-developed ER and secrete insulin, the duration and magnitude of ER stress that triggers apoptosis were quantified. Two variables-concentration of ER stress inducer (e.g. Thapsigargin-Tg) and time of exposure to the agent—are directly linked to the percentage of cells entering apoptosis (FIG. 28, A and B). Such regimes can be defined for other ER stress inducers such as the glycosylation inhibitor, tunicamycin (Tm) (FIG. 28,C). Increasing ER stress causes progressive increases in endogenous IRE1α phosphorylation, increases in XBP1 mRNA splicing (FIG. 28, E), depletion through endonucleolytic decay of the ER-localized mRNA, Ins1, which encodes proinsulin (FIG. 28, F), and induction of the pro-apoptotic transcription factor, CHOP (FIG. 28, G).
KIRAs break high-order oligomerization of IRE1α kinase domains, attenuate RNAse activity, and reduce entry of cells into the Terminal UPR.
A model of KIRA6-mediated cytoprotection is shown (FIG. 30, J); it posits that the type II kinase inhibitor, KIRA6, reduces kinase/RNAse homo-oligomerization on the cytosolic face of IRE1α, which consequently reduces RNase hyperactivity under ER stress, preventing pro-apoptotic ER-localized mRNA decay and granting cells extended reprieve from programmed cell death.

Src = Src (Homo sapiens, UniProt P12931); test: Kinase panel counter-screen; assay type: biochemical; details: tested against 12 kinases of the panel
IRE1α* [3] = biological target: T1, IRE1α*; test: IRE1α* DSS cross-linking to determine oligomer to monomer ratio; details: saturating compound (200 μM), DSS 250 μM
Description: The reaction was quenched by addition of 50 mM Tris-HCl (pH 7.5). The samples were then boiled, resolved on SDS-PAGE, and immunoblotted for IRE1α with an anti-IRE1α antibody, (visualization and quantification with a LI-COR Odyssey scanner).

Abl = Abl (Homo sapiens, UniProt P00519); test: Kinase panel counter-screen; assay type: biochemical; details: tested against 12 kinases of the panel
IRE1α* [4] = biological target: T1, IRE1α*; test: IRE1α* autophosphorylation kinase assay ([γ-32P]ATP, autoradiography); details: in vitro
Description: Inhibitors (initial concentration=80 μM, 2-fold serial dilutions) were incubated with IRE1α in cleavage buffer (20 mM Hepes at pH 7.5, 0.05% Triton X100, 50 mM KOAC, 1 mM Mg(OAC)2, 1 mM DTT) for 20 min, followed by incubation with 10 μCi [γ-^32P]ATP (3000 Ci/mmol, Perkin Elmer) at RT for 30 min. Samples were then separated by SDS-PAGE, and autoradiographed. The auto-phosphorylation level were quantified by setting the band intensity of IRE1α* without compound treatment as 1 and the background as 0.

[5] = tested on: pancreatic islets from C57BL/6 mice; test: Pancreatic islets treated with ER stress inducer (Tm); assay type: cell-based, mouse
Description: FIG. 30. KIRA6 inhibits IRE1α autophosphorylation, breaks oligomers, reduces RNase activity, and protects cells from entry into apoptosis. (A) Structure of KIRA6. (B) RNase activities of IRE1α* under varying [KIRA6]; half-maximum effective concentration (EC50) values were determined by fitting normalized fluorescence intensities (mean±s.d., n=3). (C) Inhibition of IRE1α* kinase activity in vitro by KIRA6; IC50 values were determined by fitting percent phosphorylation. […] (E) Immunoblots of IRE1α* (WT) incubated with DMSO or KIRA6 (200 μM) followed by treatment with the crosslinker DSS (250 μM); quantification is on the right. (F) Agarose gel of XBP1 cDNA amplicons from INS-1 cells pre-treated with indicated concentrations of KIRA6 for 1 h, followed by 0.5 μg/ml Tm for 8 h. […] (H) KIRAs reduce entry of INS1-1 cells into apoptosis. (I) Immunofluorescence of islets from 10 wk old C57BL/6 mice treated with 0.5 μg/mL Tm plus/minus 0.5 μM KIRA6 for 16 hr. Co-stained for DAPI, insulin, and TUNEL; Quantification of TUNEL positive β-cells (white arrows) normalized to DAPI-positive cells is shown. […] (K) Model of how KIRA6 prevents the terminal UPR by inhibiting IRE1α. […]

T1 sequence (O75460 with tags, fused parts or gaps): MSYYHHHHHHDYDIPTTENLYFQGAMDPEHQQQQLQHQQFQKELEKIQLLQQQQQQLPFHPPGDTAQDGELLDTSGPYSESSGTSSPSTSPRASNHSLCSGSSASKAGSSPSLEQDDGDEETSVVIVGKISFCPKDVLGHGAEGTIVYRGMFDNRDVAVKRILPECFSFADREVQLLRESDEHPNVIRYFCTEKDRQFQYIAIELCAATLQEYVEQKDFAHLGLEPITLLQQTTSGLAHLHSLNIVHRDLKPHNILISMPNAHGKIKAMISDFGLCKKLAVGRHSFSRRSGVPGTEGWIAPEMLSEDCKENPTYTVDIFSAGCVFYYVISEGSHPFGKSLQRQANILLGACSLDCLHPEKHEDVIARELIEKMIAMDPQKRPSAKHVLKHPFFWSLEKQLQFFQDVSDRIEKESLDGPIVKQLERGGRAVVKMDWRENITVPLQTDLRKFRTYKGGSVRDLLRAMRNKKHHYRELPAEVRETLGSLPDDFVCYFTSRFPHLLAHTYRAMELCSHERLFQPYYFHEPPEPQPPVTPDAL
T2 sequence (O75460 with tags, fused parts or gaps): as above
Chain of Abl (P00519 whole entry, species assumed): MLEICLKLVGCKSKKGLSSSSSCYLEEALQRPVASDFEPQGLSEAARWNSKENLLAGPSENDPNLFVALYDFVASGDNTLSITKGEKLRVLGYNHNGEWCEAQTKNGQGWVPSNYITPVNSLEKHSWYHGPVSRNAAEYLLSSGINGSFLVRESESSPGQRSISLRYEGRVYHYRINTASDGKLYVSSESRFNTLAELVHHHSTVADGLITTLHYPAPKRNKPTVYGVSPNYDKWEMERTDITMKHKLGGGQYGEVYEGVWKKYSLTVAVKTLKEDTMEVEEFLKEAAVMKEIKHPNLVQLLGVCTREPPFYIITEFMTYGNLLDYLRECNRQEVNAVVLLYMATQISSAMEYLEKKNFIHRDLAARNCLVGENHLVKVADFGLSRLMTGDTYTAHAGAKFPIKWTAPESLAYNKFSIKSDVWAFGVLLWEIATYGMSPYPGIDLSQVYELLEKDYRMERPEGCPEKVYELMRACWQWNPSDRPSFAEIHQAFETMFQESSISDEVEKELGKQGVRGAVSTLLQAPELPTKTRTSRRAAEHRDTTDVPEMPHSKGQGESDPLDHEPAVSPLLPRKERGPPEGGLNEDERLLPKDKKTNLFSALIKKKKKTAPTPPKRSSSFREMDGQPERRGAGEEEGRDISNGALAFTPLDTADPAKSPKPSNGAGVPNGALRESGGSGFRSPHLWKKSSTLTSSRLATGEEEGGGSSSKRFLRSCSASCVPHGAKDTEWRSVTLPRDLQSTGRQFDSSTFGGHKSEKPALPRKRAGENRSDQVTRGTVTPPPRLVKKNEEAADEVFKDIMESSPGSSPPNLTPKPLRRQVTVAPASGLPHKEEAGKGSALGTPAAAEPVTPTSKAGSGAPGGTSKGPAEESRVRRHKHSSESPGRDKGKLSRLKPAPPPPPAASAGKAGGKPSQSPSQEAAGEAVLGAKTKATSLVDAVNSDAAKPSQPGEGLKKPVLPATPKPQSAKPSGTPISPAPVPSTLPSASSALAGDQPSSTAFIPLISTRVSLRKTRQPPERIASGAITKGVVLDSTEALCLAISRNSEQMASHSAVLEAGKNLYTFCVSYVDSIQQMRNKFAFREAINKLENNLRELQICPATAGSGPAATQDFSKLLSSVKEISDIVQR
Chain of Src (P12931 whole entry, species assumed): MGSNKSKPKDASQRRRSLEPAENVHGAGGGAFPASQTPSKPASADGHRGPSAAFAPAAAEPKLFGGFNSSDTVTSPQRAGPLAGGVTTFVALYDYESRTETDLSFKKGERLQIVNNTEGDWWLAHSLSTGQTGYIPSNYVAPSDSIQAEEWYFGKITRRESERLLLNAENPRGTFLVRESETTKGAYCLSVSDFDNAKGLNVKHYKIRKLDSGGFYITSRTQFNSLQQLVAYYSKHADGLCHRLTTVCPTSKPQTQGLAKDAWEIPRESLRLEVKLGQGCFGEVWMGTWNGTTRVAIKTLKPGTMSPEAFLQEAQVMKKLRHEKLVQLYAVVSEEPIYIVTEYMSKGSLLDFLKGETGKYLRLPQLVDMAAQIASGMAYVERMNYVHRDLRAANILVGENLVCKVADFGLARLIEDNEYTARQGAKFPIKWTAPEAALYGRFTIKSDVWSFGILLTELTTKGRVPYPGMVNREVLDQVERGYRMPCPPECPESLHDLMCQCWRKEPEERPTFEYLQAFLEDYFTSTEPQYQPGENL

off-target kinase inhibition (Src): off-target inhibition observed
off-target kinase inhibition (Abl): off-target inhibition observed
Compound: CC(C)(C)c1nc(-c2ccc(NC(=O)Nc3cccc(C(F)(F)F)c3)c3ccccc23)c2c(N)nccn12 [KIRA6, 1-(4-(8-amino-3-tert-butylimidazo[1,5-a]pyrazin-1-yl)naphthalen-1-yl)-3-(3-(trifluoromethyl)phenyl)urea]
modulation of IRE1α* RNase activity (XBP1 RNA cleavage) (IRE1α* [1]): inhibits IRE1α* RNase and kinase activities with similar IC50s; also recorded: dose-dependently reduces kinase autophosphorylation and XBP1 splicing activity
cleavage of pre-miR-17 by IRE1α* (IRE1α* (WT)): dose-dependently inhibits IRE1α* (WT) cleavage of pre-miR-17; also recorded: prevents cleavage of pre-miR-17 by IRE1α* in vitro
outer nuclear layer (ONL) thickness vs DMSO (retinal photoreceptors; P23H-1 rats at P30, intravitreal 10 μM): higher thickness
photoreceptor loss / viability and function (retinal photoreceptors; intravitreal, rat models of retinal degeneration caused by ER stress): protects viability and preserves function of retinal photoreceptors; also recorded: prevents photoreceptor loss
cytoprotective effects ([2]; Ire1α−/− MEFs): absent
cytoprotective effects ([2]; WT and Xbp1−/− MEFs): still demonstrable
ER-localized endonucleolytic decay of Ins1 mRNA (INS-1 cells; ER stress): inhibits ER-localized endonucleolytic decay of Ins1 mRNA at lower doses of the drug than needed to inhibit XBP1 mRNA splicing
caspase 2 accumulation and cleavage (INS-1 cells; FIG. 31F): reduces caspase 2 accumulation and cleavage
mature miR-17 levels (INS-1 cells; in vivo (cells), FIG. 31E): rescues mature miR-17 levels
terminal UPR endpoints / entry into apoptosis (INS-1 cells; pre-treatment before ER stress inducers): all these terminal UPR endpoints are curtailed
endogenous IRE1α-mediated XBP1 mRNA splicing (endogenous IRE1α; INS-1, provoked by Tm): inhibits endogenous IRE1α-mediated XBP1 mRNA splicing
endogenous IRE1α auto-phosphorylation (endogenous IRE1α; in vivo (cells), FIG. 30D): inhibits endogenous IRE1α auto-phosphorylation in a dose-dependent manner
IRE1α* oligomer/monomer ratio (oligomerization state) (IRE1α* [3]): stabilizes the monomeric state; also recorded: reduces concentration-dependent oligomerization
inhibition of IRE1α* autophosphorylation (IRE1α* [4]): dose-dependently reduces kinase autophosphorylation
TXNIP protein accumulation ([5]; C57BL/6 islets exposed to ER stress inducers): prevents TXNIP protein accumulation
cytoprotection of pancreatic islets ([5]; islets treated with Tm): cytoprotective effects
